Measurements: patent US6680327B2, “Crystalline form VII of cabergoline” (Pharmacia Italia SpA, priority 2000, dated 2004)

Tests used:
[1] = thermodynamic stability of cabergoline polymorphs; format: physicochemical
Experimental: It can be readily prepared by slurry of form I or mixture of form I and VII in a solvent at a temperature over 30° C. The importance of cabergoline form VII rests primarily (but not exclusively) in thermodynamic stability.
The present invention also provides a process for producing crystalline cabergoline Form VII by subjecting crystals of form I or a mixture of crystals form I and VII to a slurry procedure at a temperature over 30° C. Preferably, the process comprises suspending crystals of form I or a mixture of crystals form I and VII in an organic solvent, such as n-heptane, diethyl ether, or n-hexane, at a temperature of from +30° to +80° C., more preferably about 55° C. The resultant suspension is then stirred at this temperature for about from 24 to 120 hours, more preferably for about 48 hours.

[2] = system: prolactine; assay: inhibitory effect with regard prolactine; details: statement in words, no test described

stability with respect to form I ([1]; compared with form I): greater stability | thermodynamic stability of the polymorph ([1]; range of temperature between +30° and +80° C.): thermodynamically most stable polymorph
SMILES: C=CCN1C[C@H](C(=O)N(CCCN(C)C)C(=O)NCC)C[C@@H]2c3cccc4[nH]cc(c34)C[C@H]21 [Form VII, 1((6-allylergolin-8beta-yl)-carbonyl)-1-(3-dimethylaminopropyl)-3-ethylurea]
inhibitory effect with regard prolactine [2]: significant inhibitory effect
